Source: PubChem BioAssay AID1259411 (Chemical Carcinogenesis Research Information System (CCRIS), 2018)
Calls of active or inactive are those of the source. How the calls were made is not given here.

Tested on: rodent carcinogenicity bioassays, tumor incidence
Experiment: CCRIS carcinogenicity studies
In short: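 Archive of carcinogenicity, mutagenicity, tumor promotion and tumor inhibition results drawn from journals, NCI reports and other sources, expert-reviewed; covers 1985-2011 and is no longer updated.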

`O=[N+]([O-])c1ccc(NCCO)c(OCCO)c1` was tested, and the carcinogen call (Species: MOUSE, Strain/Sex: B6C3F1/FEMALE, Route: ORAL, Dose: 0, 5000, 10000 PPM IN FEED 7 D/WK FOR 104 WK (STUDY DURATION: 2 YR), Dose: 0, 5000, 10000 PPM IN FEED 7 D/WK FOR 104 WK (STUDY DURATION: 2 YR)) was “inactive; negative”, the carcinogen call (Species: MOUSE, Strain/Sex: B6C3F1/MALE, Route: ORAL, Dose: 0, 5000, 10000 PPM IN FEED 7 D/WK FOR 104 WK (STUDY DURATION: 2 YR), Dose: 0, 5000, 10000 PPM IN FEED 7 D/WK FOR 104 WK (STUDY DURATION: 2 YR)) was “inactive; negative” and the carcinogen call (Species: RAT, Strain/Sex: F344/FEMALE, Route: ORAL, Dose: 0, 5000, 10000 PPM IN FEED 7 D/WK FOR 104 WK (STUDY DURATION: 2 YR), Dose: 0, 5000, 10000 PPM IN FEED 7 D/WK FOR 104 WK (STUDY DURATION: 2 YR)) was “inactive; negative”. For the same compound, the carcinogen call (Species: RAT, Strain/Sex: F344/MALE, Route: ORAL, Dose: 0, 5000, 10000 PPM IN FEED 7 D/WK FOR 104 WK (STUDY DURATION: 105 WK), Dose: 0, 5000, 10000 PPM IN FEED 7 D/WK FOR 104 WK (STUDY DURATION: 105 WK), Tumor Site: Type of Lesion: PITUITARY GLAND (PARS DISTALIS): ADENOMA) was “equivocal”.
In the case of `CCCCN(N=O)C(=O)CCC`, the carcinogen call (Species: RAT, Strain/Sex: F344/MALE,FEMALE, Route: SUBCUTANEOUS, Dose: 38 UMOL/KG IN OLIVE OIL 1/WK FOR 10 WK, Tumor Site: Type of Lesion: INJECTION SITE: MALIGNANT FIBROUS HISTIOCYTOMA, LUNG: ADENOMA) is reported as “active; positive”.
For `C=CCN(CC=C)N=O`, the carcinogen call (Species: RAT, Strain/Sex: BDIX/FEMALE, Route: ORAL, Dose: 0, 20, 40, 80 MG/KG IN DRINKING WATER FOR DURATION OF STUDY (STUDY DURATION: LIFE TIME), Dose: 0, 20, 40, 80 MG/KG IN DRINKING WATER FOR DURATION OF STUDY (STUDY DURATION: LIFE TIME), Tumor Site: Type of Lesion: NASAL/PARANASAL CAVITY: TUMORS) was “active; positive” and the carcinogen call (Species: RAT, Strain/Sex: BDIX/MALE, Route: ORAL, Dose: 0, 20, 40, 80 MG/KG IN DRINKING WATER FOR DURATION OF STUDY (STUDY DURATION: LIFE TIME), Dose: 0, 20, 40, 80 MG/KG IN DRINKING WATER FOR DURATION OF STUDY (STUDY DURATION: LIFE TIME), Tumor Site: Type of Lesion: NASAL/PARANASAL CAVITY: TUMORS) was “active; positive”.
In the case of `CCN(CC)CCCNC(=O)Cn1ncc(-c2ccccc2)c1-c1ccccc1`, the carcinogen call (Species: RAT, Strain/Sex: SPRAGUE-DAWLEY/FEMALE, Route: GAVAGE, Dose: 0, 20, 80, 160 MG/KG 1/D FOR 1 YR (STUDY DURATION: 1 YR), Dose: 0, 20, 80, 160 MG/KG 1/D FOR 1 YR (STUDY DURATION: 1 YR)) is reported as “inactive; negative” and the carcinogen call (Species: RAT, Strain/Sex: SPRAGUE-DAWLEY/MALE, Route: GAVAGE, Dose: 0, 20, 80, 160 MG/KG 1/D FOR 1 YR (STUDY DURATION: 1 YR), Dose: 0, 20, 80, 160 MG/KG 1/D FOR 1 YR (STUDY DURATION: 1 YR)) is reported as “inactive; negative”.
`ClC1=C(Cl)C2(Cl)C3C(Cl)C(Cl)CC3C1(Cl)C2(Cl)Cl` (stereo unspecified) was tested, and the carcinogen call (Species: MOUSE, Strain/Sex: C57B1/MALE, Route: ORAL, Dose: 0, 50 PPM IN DIET FOR 24 MO (STUDY DURATION: 24 MO), Tumor Site: Type of Lesion: LIVER: ADENOMA OR CARCINOMA) was “active; positive”, the carcinogen call (Species: MOUSE, Strain/Sex: ICR/FEMALE, Route: ORAL, Dose: 0, 1, 5, 12.5 PPM IN DIET FOR 104 WK (STUDY DURATION: 104 WK), Dose: 0, 1, 5, 12.5 PPM IN DIET FOR 104 WK (STUDY DURATION: 104 WK)) was “inactive; negative” and the carcinogen call (Species: MOUSE, Strain/Sex: ICR/MALE, Route: ORAL, Dose: 0, 1, 5, 12.5 PPM IN DIET FOR 104 WK (STUDY DURATION: 104 WK), Dose: 0, 1, 5, 12.5 PPM IN DIET FOR 104 WK (STUDY DURATION: 104 WK), Tumor Site: Type of Lesion: LIVER: ADENOMA, HEMANGIOMA) was “active; positive”. For the same compound, the carcinogen call (Species: RAT, Strain/Sex: F344/FEMALE, Route: ORAL, Dose: 0, 1, 5, 25 PPM IN DIET FOR 130 WK (STUDY DURATION: 130 WK), Dose: 0, 1, 5, 25 PPM IN DIET FOR 130 WK (STUDY DURATION: 130 WK), Tumor Site: Type of Lesion: MAMMARY GLAND: FIBROADENOMA) was “active; positive” and the carcinogen call (Species: RAT, Strain/Sex: F344/MALE, Route: ORAL, Dose: 0, 1, 5, 25 PPM IN DIET FOR 130 WK (STUDY DURATION: 130 WK), Dose: 0, 1, 5, 25 PPM IN DIET FOR 130 WK (STUDY DURATION: 130 WK), Tumor Site: Type of Lesion: LIVER: NODULE) was “active; positive”.
In the case of `CO[C@H]1/C=C/O[C@@]2(C)Oc3c(C)c(O)c4c(O)c(c(C=NN5CCN(C)CC5)c(O)c4c3C2=O)NC(=O)/C(C)=C\C=C\[C@H](C)[C@H](O)[C@@H](C)[C@@H](O)[C@@H](C)[C@H](OC(C)=O)[C@@H]1C`, the carcinogen call (Species: MOUSE, Strain/Sex: C3F/FEMALE, Route: ORAL, Dose: 0.01, 0.03 0.06% IN DRINKING WATER WITH 0.05% SODIUM ASCORBATE FOR 60 WK, Tumor Site: Type of Lesion: LIVER: BENIGN TUMOR OR MALIGNANT TUMOR) is reported as “active; positive”.
In the case of `OCC(Br)CBr` (stereo unspecified), the carcinogen call (Species: MOUSE, Strain/Sex: B6C3F1/FEMALE, Route: DERMAL, Dose: 0, 188, 375 MG/KG IN ETHANOL APPLIED TO SUBSCAPULAR SKIN 5 D/WK FOR 39-42 WK (STUDY DURATION: 42 WK), Dose: 0, 188, 375 MG/KG IN ETHANOL APPLIED TO SUBSCAPULAR SKIN 5 D/WK FOR 39-42 WK (STUDY DURATION: 42 WK), Tumor Site: Type of Lesion: SKIN: SQUAMOUS CELL PAPILLOMA, FORESTOMACH: SQUAMOUS CELL PAPILLOMA, SQUAMOUS CELL CARCINOMA) is reported as “active; positive”, the carcinogen call (Species: MOUSE, Strain/Sex: B6C3F1/MALE, Route: DERMAL, Dose: 0, 188, 375 MG/KG IN ETHANOL APPLIED TO SUBSCAPULAR SKIN 5 D/WK FOR 36-39 WK (STUDY DURATION: 42 WK), Dose: 0, 188, 375 MG/KG IN ETHANOL APPLIED TO SUBSCAPULAR SKIN 5 D/WK FOR 36-39 WK (STUDY DURATION: 42 WK), Tumor Site: Type of Lesion: SKIN: SQUAMOUS CELL PAPILLOMA, FORESTOMACH: SQUAMOUS CELL PAPILLOMA, LUNG: ALVEOLAR/BRONCHIOLAR ADENOMA, LIVER: HEPATOCE, Tumor Site: Type of Lesion: SKIN: SQUAMOUS CELL PAPILLOMA, FORESTOMACH: SQUAMOUS CELL PAPILLOMA, LUNG: ALVEOLAR/BRONCHIOLAR ADENOMA, LIVER: HEPATOCE) is reported as “active; positive” and the carcinogen call (Species: RAT, Strain/Sex: F344/FEMALE, Route: DERMAL, Dose: 0, 188, 375 MG/KG IN ETHANOL APPLIED TO SUBSCAPULAR SKIN 5 D/WK FOR 52-55 WK (STUDY DURATION: 56 WK), Dose: 0, 188, 375 MG/KG IN ETHANOL APPLIED TO SUBSCAPULAR SKIN 5 D/WK FOR 52-55 WK (STUDY DURATION: 56 WK), Tumor Site: Type of Lesion: SKIN: SQUAMOUS CELL PAPILLOMA OR CARCINOMA, BASAL CELL TUMOR, KERATOACANTHOMA, ORAL MUCOSA: SQUAMOUS CELL PAPILLOMA, SQU) is reported as “active; positive”. The carcinogen call (Species: RAT, Strain/Sex: F344/MALE, Route: DERMAL, Dose: 0, 188, 375 MG/KG IN ETHANOL APPLIED TO SUBSCAPULAR SKIN 5 D/WK FOR 48-51 WK (STUDY DURATION: 56 WK), Dose: 0, 188, 375 MG/KG IN ETHANOL APPLIED TO SUBSCAPULAR SKIN 5 D/WK FOR 48-51 WK (STUDY DURATION: 56 WK), Tumor Site: Type of Lesion: SKIN: SQUAMOUS CELL PAPILLOMA OR CARCINOMA, BASAL CELL TUMOR, SEBACEOUS ADENOMA, KERATOACANTHOMA, ORAL MUCOSA: SQUAMOUS) was “active; positive”.
With `O[C@H]1C=C2c3c(cccc3[C@@H]1O)-c1ccc3ccccc3c12` the carcinogen call (Species: MOUSE, Strain/Sex: CD-1/FEMALE, Route: INTRAPERITONEAL, Dose: 0, 0.275, 1.1 UMOL (TOTAL DOSE) ADMINISTERED OVER DAYS 1, 8, AND 15 OF LIFE (STUDY DURATION: 52 WEEKS), Dose: 0, 0.275, 1.1 UMOL (TOTAL DOSE) ADMINISTERED OVER DAYS 1, 8, AND 15 OF LIFE (STUDY DURATION: 52 WEEKS), Tumor Site: Type of Lesion: LUNG: ALVEOLAR/BRONCHIOLAR CARCINOMA) was “active; positive” and the carcinogen call (Species: MOUSE, Strain/Sex: CD-1/MALE, Route: INTRAPERITONEAL, Dose: 0, 0.275, 1.1 UMOL (TOTAL DOSE) ADMINISTERED OVER DAYS 1, 8, AND 15 OF LIFE (STUDY DURATION: 52 WEEKS), Dose: 0, 0.275, 1.1 UMOL (TOTAL DOSE) ADMINISTERED OVER DAYS 1, 8, AND 15 OF LIFE (STUDY DURATION: 52 WEEKS), Tumor Site: Type of Lesion: LUNG: ALVEOLAR/BRONCHIOLAR CARCINOMA, LIVER: ADENOMA OR CARCINOMA) was “active; positive”.
